From PMC10229426, “An optimized bioluminescent substrate for non-invasive imaging in the brain” (Nature Chemical Biology, 2023)
“Also recorded” adds a separate entry of the source. Where two headings read alike, the source gives them in different places.

Tests used:
[1] = parameters: method as in doi:10.1134/S1068162018020085; settings: cited from earlier work
Antares luciferase [2] = molecular target: T1, Antares luciferase (Oplophorus gracilirostris, UniProt Q9GV45, A31E/A60N/A81I/F95D/I117V/K70R/L54V/L99Q/M102K/N193R/P142E/Q151K/Q38R/Q45L/V71I/Y165I); test: Bioluminescence imaging of transgenic mice for substrate comparison (brain, Cre-driven Antares); format: in vivo, mouse
T1 construct: expressed in transfected cells; host or cells: transgenic mice with CAG-LSL-Antares at the H11 locus, crossed to Cre driver lines (neurons or liver)
Description: (§1) Transgenic reporter mice with LSL-CAG-luciferase (Antares, FLuc or AkaLuc) inserted at the H11 locus (H11P) were generated by φC31-mediated recombination in blastocysts[48] by the Stanford Transgenic, Knockout and Tumor Model Center. For substrate comparisons, 2- to 4-month-old transgenic mice doubly hemizygous for a Camk2a-cre (Jackson Laboratory, 005359), Vgat-IRES-cre (Jackson Laboratory), Vglut2-IRES-cre (Jackson Laboratory, 016963) or Alb-cre (Jackson Laboratory, 003574) driver and a CAG-LSL-Antares, CAG-LSL-AkaLuc or CAG-LSL-FLuc reporter were anesthetized by inhalation of isoflurane for 5 min. An electric shaver was used to remove scalp hair in Camk2a-cre, Vglut2-IRES-cre or Vgat-IRES-cre mice or abdominal hair in Alb-cre mice. Nair depilatory cream (Church and Dwight) was then applied to the shaved area for 1 min, and remaining hair was removed with a piece of sterile gauze. The area was then rinsed with DPBS and cleaned with 70% ethanol with a piece of sterile gauze.
For mice expressing Antares, indicated amounts of Fz were dissolved in 480 µl of a PEG-300-based formulation consisting of 10% glycerol, 10% ethanol, 10% hydroxypropylcyclodextrin and 35% PEG-300 in water, or indicated amounts of lyophilized Fz analogs with P-407 vehicle were reconstituted in 150–500 µl of DPBS buffer. For mice expressing FLuc, indicated amounts of D-luciferin were dissolved in PBS. For mice expressing AkaLuc, 3 μmol (1.0 mg) of AkaLumine-HCl (Sigma-Aldrich) was dissolved in 150 μl of 0.9% NaCl. Substrates were then injected into the peritoneal cavity in the left lower quadrant, with the maximum injectable volume at 480 µl. Immediately after substrate injection, bioluminescent images were acquired in an Ami HT bioluminescence imaging system running Aura software version 3.1 or 4.0 (Spectral Instruments Imaging) for 15–30 min at intervals of 1 min. For comparing substrates at 1.3 µmol, the following imager settings were used: emission filter open, field of view of 25 cm, f-stop of 1.2, binning of 2 × 2 and exposure time of 2 s. For comparison with >1.3-µmol substrates, the following settings were used: emission filter open, field of view of 25 cm, f-stop of 1.2, binning of 1 × 1 and exposure time of 1 s. Pseudocolor images and intensity scale bars were generated with Aura software. Integrated luminescence was quantified using the Fiji version of the ImageJ program (NIH)[49], with further statistical analysis performed in GraphPad Prism (version 9.0.0).

[3] = Toxicity in mice: necropsy and histopathology; format: in vivo, C57BL/6 mice; parameters: key: 0: absent; 1: minimal; 2: mild; 3: moderate; 4: severe; settings: individual mice
Description: (§2) Male C57BL/6 mice of 2 months of age were killed by CO2 asphyxiation and cardiac exsanguination. All mice were weighed, and a complete gross examination of the external and internal organs was performed. […] Formalin-fixed tissues were processed routinely, embedded in paraffin, sectioned at 5 μm and stained with hematoxylin and eosin. All slides were blindly evaluated for histologic treatment-related effects (Supplementary Table 1) by a board-certified veterinary pathologist.

Antares luciferase [4] = molecular target: T1, Antares luciferase; test: Non-invasive detection of Antares in the liver (Alb-cre driver); format: in vivo, mouse; settings: 1.3 µmol i.p.
Description: as §1, with “The area was then rinsed with DPBS and cleaned with 70% ethanol with a piece of sterile gauze.” left out
For mice expressing Antares, indicated amounts of Fz were dissolved in 480 µl of a PEG-300-based formulation consisting of 10% glycerol, 10% ethanol, 10% hydroxypropylcyclodextrin and 35% PEG-300 in water, or indicated amounts of lyophilized Fz analogs with P-407 vehicle were reconstituted in 150–500 µl of DPBS buffer. […] Integrated luminescence was quantified using the Fiji version of the ImageJ program (NIH)[49], with further statistical analysis performed in GraphPad Prism (version 9.0.0).

[5] = Toxicity in mice: necropsy and histopathology; format: in vivo, C57BL/6 mice; parameters: key: 0: absent; 1: minimal accumulation; 2: mild accumulation; 3: moderate accumulation; 4: severe accumulation; settings: individual mice
Description: as §2

[6] = Toxicity in mice: necropsy and histopathology; format: in vivo, C57BL/6 mice; parameters: key: 0: absent; 1: present; settings: individual mice
Description: as §2

T1 sequence (Q9GV45 other isoform, or with tags, fused parts or gaps with the stated changes): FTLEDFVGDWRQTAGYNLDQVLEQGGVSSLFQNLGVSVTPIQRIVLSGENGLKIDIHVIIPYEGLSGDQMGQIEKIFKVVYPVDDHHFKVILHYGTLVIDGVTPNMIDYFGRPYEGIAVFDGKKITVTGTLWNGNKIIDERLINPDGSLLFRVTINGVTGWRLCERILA

## O=c1c(Cc2ccco2)nc2c(Cc3ccccc3)[nH]c(-c3ccccc3)cn1-2 [Fz, furimazine, reference compound]
[1]; 20 µg i.v. per day
  toxicity of daily i.v. injection: minimal toxicity
[1]; 60 µg (0.16 µmol) i.v. daily for 7 d
  toxicity of daily i.v. injection: caused liver and lung damage
Antares luciferase [2]; Antares driven by Camk2a-cre
  brain signal distribution: expected forebrain-enriched signal
Antares luciferase [2]; i.p., CAG-LSL-Antares x Vgat-IRES-cre mice
  brain signal distribution: signal from both the forebrain and hindbrain

## O=c1c(Cc2ccco2)nc2c(Cc3ccccc3)[nH]c(-c3cccc(F)c3F)cn1-2 [compound 6, cephalofurimazine]
[3]; 1 day, 4.2 µmol, 20 mg P-407
  HPMC, heart perivascular myxomatous change score: 0
  HT, heart telangiectasia score: 0
  KCHMV, Kupffer cell hyperplasia and microvesicular vacuolation score: 0
[3]; 3 days, 1.3 µmol, 12 mg P-407
  HPMC, heart perivascular myxomatous change score: 0
  HT, heart telangiectasia score: 0
  KCHMV, Kupffer cell hyperplasia and microvesicular vacuolation score: 0
[3]; 3 days, 4.2 µmol, 20 mg P-407
  HPMC, heart perivascular myxomatous change score: 0
[3]; 5 days, 1.3 µmol, 12 mg P-407
  HPMC, heart perivascular myxomatous change score: 0
  HT, heart telangiectasia score: 0
Antares luciferase [4]
  liver signal, 6 versus FFz: threefold dimmer than FFz
[5]; 3 days, 4.2 µmol, 20 mg P-407
  KCHMV, Kupffer cell hyperplasia and microvesicular vacuolation score: 2
[5]; 5 days, 1.3 µmol, 12 mg P-407
  KCHMV, Kupffer cell hyperplasia and microvesicular vacuolation score: 2
Antares luciferase [2]; 1.3 µmol i.p., Antares driven by Vglut2-IRES-cre or Camk2a-cre, listed as CFz
  brain brightness relative to Fz: at least 2.5 fold
Antares luciferase [2]; 1.3 μmol i.p., CAG-LSL-Antares x Vgat-IRES-cre
  peak light production in the brain relative to Fz: significantly brighter
Antares luciferase [2]; 4.2 µmol CFz with 20 mg P-407, i.p.
  brain bioluminescence of 4.2 µmol dose relative to 1.3-μmol dose: 6.5 fold
Antares luciferase [2]; Antares with 1.3 µmol CFz vs AkaLuc with 3.0 µmol AkaLumine, i.p., Vgat-cre or Camk2a-cre double hemizygotes, listed as CFz
  peak brain signal relative to AkaLuc with AkaLumine: matches AkaLuc–AkaLumine/TokeOni in brightness; also recorded: comparable peak signal
Antares luciferase [2]; Antares–CFz
  kinetics of brain signal relative to AkaLuc–AkaLumine: rise and decay more quickly
Antares luciferase [2]; CFz paired with Antares
  signal from the brain relative to D-luciferin with firefly luciferase: greater than 20 fold
[6]; 1 day, 4.2 µmol, 20 mg P-407
  HT, heart telangiectasia score: 1
[6]; 3 days, 4.2 µmol, 20 mg P-407
  HPMC, heart perivascular myxomatous change score: 1
  HT, heart telangiectasia score: 1
[6]; 5 days, 1.3 µmol, 12 mg P-407
  HPMC, heart perivascular myxomatous change score: 1
  HT, heart telangiectasia score: 1
